{"source": "patent US20250313530A1", "about": "“SMALL MOLECULE INHIBITORS OF INTERLEUKIN-4 AND USES THEREOF” (Trustees of Boston University, priority 2024, published 2025)", "key": {"Mouse plasma stability": {"experiment": "Mouse plasma stability", "type": "in vitro ADME"}, "B16-F10 cells": {"test_system": "B16-F10 cells", "experiment": "In vitro cytotoxicity (CellTiter-Glo)", "type": "cell-based", "conditions": "up to 25 μM", "experimental": "CellTiter-Glo 2.0 purchased from Promega G9242) was used to measure cell viability with the Victor-3 plate reader (PerkinElmer) after 24 hours in concentrations of compound up to 25 μM. Vehicle was used as a negative control for both cytotoxicity and growth inhibition, methanol was used as a positive control for cytotoxicity, and 1% FBS was used as a positive control for growth inhibition."}, "Human plasma stability": {"experiment": "Human plasma stability", "type": "in vitro ADME"}, "IL-4 [1]": {"molecular_target": "T1, IL-4 (Homo sapiens, UniProt P05112)", "T1 construct": "purchased Acros Biosystems IL4-H4218; host or cells: HEK-293", "T1 sequence (P05112 25-153)": "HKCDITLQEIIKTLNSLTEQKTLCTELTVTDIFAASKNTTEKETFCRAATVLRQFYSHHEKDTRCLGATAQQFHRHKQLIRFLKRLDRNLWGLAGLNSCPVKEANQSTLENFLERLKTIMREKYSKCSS", "experiment": "Surface plasmon resonance binding to IL-4", "experimental": "Surface plasmon resonance was performed on a Biacore S200. Series S Sensor chips were purchased from Cytiva. The running buffer was 1×PBS pH 7.40 with 2% DMSO and 0.1% Tween-20 and the flow rate was kept at 50 μL/min. The SA chip was first activated with 120 μL of 1 M NaCl in 50 mM NaOH followed by a wash of 50% Isopropanol in 1 M NaCl and 50 mM NaOH, 200 μl of a 1 mg/ml solution of Avi-tagged IL-4 in DMSO-free buffer was used to immobilize 7073 RU on the chip surface using the BiacoreS200 software, 100 μl of 50 mM Biocytin was used to block all biotin slides on the sensor chip with manual setting. The system was then primed with running buffer for 7 minutes. […] Analog 15 was diluted in the running buffer and injected for 300 seconds cycles, in an ascending order. The dissociation phase was 600 seconds long. Sensorgram figures were created by exporting the raw data and plotting in Graphpad Prism 9.2.0^48."}, "[2]": {"test_system": "IL-4 induced STAT-6 phosphorylation in Ramos B lymphocytes (type I IL-4 receptor)", "experiment": "Ramos STAT-6 phosphorylation assay (western blot)", "type": "cell-based", "experimental": "Ramos cells were purchased from ATCC and maintained in RMPI-1640 with 10% heat-inactivated Fetal Bovine Serum. Cells used for assays were between passages 4 and 8. […] Undiluted cell lysates were run SDS-PAGE and transferred to Immunoblot PVDF membrane using Biorad equipment. Membranes were incubated with 1:1000 primary antibody overnight at 4° C. Membranes were then incubated with 1:50,000 dilution secondary for 1 hour at room temperature. Membranes were then exposed to Femto ECL for 5 minutes and imaged using a Bio-Rad Gel Doc. The brightness/contrast was adjusted in FIJI and the area under the curve of each lane was quantified. The phosphorylated STAT-6 to STAT-6 ratio was calculated and normalized to the amount of total STAT-6. The data was plotted and analyzed using GraphPad Prism 9.2.0."}, "[3]": {"test_system": "IL-4 induced STAT-6 phosphorylation in THP-1 monocytes (type II IL-4 receptor)", "experiment": "THP-1 STAT-6 phosphorylation assay (western blot)", "type": "cell-based", "experimental": "THP-1 cells were received as a gift from the laboratory of Dr. Mark Grinstaff and maintained in RMPI-1640 with […] heat-inactivated Fetal Bovine Serum and 50 μM beta-mercaptoethanol. Cells used for assays were between passages 6 and 10, 10 ng/mL IL-4 was preincubated with experimental sample (vehicle or analogs) for 30 minutes at 37° C. 1 mL of each solution was then added to a pellet of 2 E6 THP-1 cells and pipetted up and down. THP-1 cells were incubated for 30 minutes in the incubator at 37 C/5% CO2. Cells were then spun down and lysed with 200 μL ice-cold RIPA buffer complete with phosphatase and protease inhibitors. Cell lysates were incubated on ice for 30 minutes, spun down and the supernatants were stored at −20° C. until western blot analysis. Undiluted cell lysates were run on SDS-PAGE and transferred to Immunoblot PVDF membrane using Biorad equipment. Membranes were incubated with 1:1000 primary antibody overnight at 4° C. Membranes were then incubated with 1:50,000 dilution secondary for 1 hour at room temperature. Membranes were then exposed to Femto ECL for 5 minutes and imaged using a Bio-Rad Gel Doc. The brightness/contrast was adjusted in FIJI and the area under the curve of each lane was quantified. The phosphorylated STAT-6 to STAT-6 ratio was calculated and normalized to the amount of total STAT-6. The data was plotted and analyzed using GraphPad Prism 9.2.0′."}, "IL-4 [4]": {"molecular_target": "T1, IL-4", "experiment": "HEK-Blue IL-4/IL-13 reporter assay, IL-4 inhibition", "type": "cell-based", "conditions": "for EC50: dose response, IL-4 inhibition", "experimental": "HEK-Blue IL-4/IL-13 Inhibition assay. HEK-Blue IL-4/IL-13 reporter cell lines were purchased from Invivogen and cultured in DMEM with 10% Heat Inactivated Fetal Bovine Serum (FBS), 100 U/ml-100 μg/ml Pen-Strep, 10 μg/ml blasticidin, 100 μg/ml Normocin and 100 μg/ml Zeocin. Cells were tested for secreted embryonic alkaline phosphatase (SEAP) production induced by IL-4 alone prior to small molecule screening.\n22.5 μl of small molecule in DMEM 4% DMSO was added to 22.5 μl of 1 ng/ml IL-4 in DMEM in a non-binding 96-well reaction plate for 30 minutes at room temperature. The reaction plate was further incubated for 30-60 min at 37° C. HEK-Blue IL-4/IL-13 reporter cell line was used between passages 11-17. […] Measurements were done in triplicate. The plate was incubated for ˜22-24 hours at 37° C./5% CO2. Quanti-Blue dye was prepared as per the manufacturer's recommendation and 160 μl was dispensed in each well of a 96-well plate (avoid edges to avoid evaporation), 40 μl of cell supernatant was added to the same plate and incubated for 3 hours at 37° C./5% CO2. Optical density was then measured at 650 nm using Molecular Devices SpectraMax M5 Microplate reader. Data was analyzed and plotted using GraphPad Prism 9.2.0."}}, "note": "“And” between values parts separate entries of the source, which are not always exact repeats. Identical values can stand only once. Like-named read-outs stand apart in the source and are kept apart here."}
{"smiles": "N#Cc1c(-c2ccc(O)c(O)c2)cc(-c2ccccc2)[nH]c1=N", "note": "[Compound 15, 4-(3,4-dihydroxyphenyl)-2-imino-6-phenyl-1,2-dihydropyridine-3-carbonitrile]", "values": [{"measurement": "Mouse plasma stability (% remaining after 3 hours)", "setting": "Mouse plasma stability", "value": 94.3, "unit": "%"}, {"measurement": "Cytotoxicity in B16-F10 cells (24 hours)", "setting": "B16-F10 cells", "value": "no toxicity"}, {"measurement": "Cytotoxicity in B16-F10 cells (24 hours)", "setting": "B16-F10 cells; listed as Analog 15", "value": "n.s. < 25 μM"}, {"measurement": "Human plasma stability (% remaining after 3 hours)", "setting": "Human plasma stability", "value": 97.4, "unit": "%"}, {"measurement": "kd", "setting": "IL-4 [1]; SPR kinetic binding constant", "value": "8.34 e−04 s^−1"}, {"measurement": "Kd", "setting": "IL-4 [1]; SPR steady-state affinity analysis", "value": 31.9, "unit": "nM"}, {"measurement": "kon", "setting": "IL-4 [1]; pH 7.4, read-out: ka", "value": 26200, "unit": "M⁻¹ s⁻¹"}, {"measurement": "inhibition at 0.5 µM", "setting": "[2]; Homo sapiens, Ramos, read-out: percent inhibition of STAT-6 phosphorylation", "value": 61.9, "unit": "%"}, {"measurement": "inhibition of phosphorylation of STAT-6", "setting": "[2]; Ramos B lymphocytes, 50 nM", "value": "minimum inhibition"}, {"measurement": "EC50", "setting": "[3]; Homo sapiens, THP-1 monocytes, western blot, normalized to STAT-6, read-out: EC50 of inhibition of STAT-6 phosphorylation", "value": 49.6, "unit": "nM"}, {"measurement": "STAT-6 levels", "setting": "[3]; total STAT-6, THP-1 cells", "value": "not impacted"}, {"measurement": "inhibition at 10 µM", "setting": "IL-4 [4]; HEK-Blue, 10 μM, IL-4, HEK Blue IL-4/IL-13 reporter assay", "value": 95.5, "unit": "%"}, {"measurement": "EC50", "setting": "IL-4 [4]; HEK Blue IL-4/IL-13 reporter assay, read-out: EC50", "value": "850 nM and 550 nM"}, {"measurement": "EC50", "setting": "IL-4 [4]; values in text, read-out: potency (EC50 of inhibition)", "value": 552, "unit": "nM"}, {"measurement": "Hill coefficient", "setting": "IL-4 [4]; fit of dose response in HEK Blue IL-4/IL-13 reporter assay", "value": "1.49±0.15"}]}
